Data published in PubChem BioAssay (NCI).
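The compound was tested at five concentrations on cells cultured in 96-well plates, with a 48-hour exposure period. Here, GI50 denotes the concentration required for 50% inhibition of growth. At the TGI there is no net growth.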

What was measured:
Test in all cases: NCI-60 cell line screen, 48 h
SK-MEL-5 melanoma = test system: SK-MEL-5 melanoma
NCI-H460 lung = test system: NCI-H460 lung
PC-3 prostate = test system: PC-3 prostate
DU-145 prostate = test system: DU-145 prostate
OVCAR-4 ovarian = test system: OVCAR-4 ovarian
SNB-75 CNS = test system: SNB-75 CNS
SK-MEL-28 melanoma = test system: SK-MEL-28 melanoma
OVCAR-5 ovarian = test system: OVCAR-5 ovarian
786-0 renal = test system: 786-0 renal
T-47D breast = test system: T-47D breast
UO-31 renal = test system: UO-31 renal
NCI-H226 lung = test system: NCI-H226 lung
HS 578T breast = test system: HS 578T breast
EKVX NSCLC = test system: EKVX NSCLC
KM12 colon = test system: KM12 colon
MOLT-4 leukemia = test system: MOLT-4 leukemia
OVCAR-8 ovarian = test system: OVCAR-8 ovarian
K-562 leukemia = test system: K-562 leukemia
HL-60(TB) leukemia = test system: HL-60(TB) leukemia
COLO 205 colon = test system: COLO 205 colon
RPMI-8226 leukemia = test system: RPMI-8226 leukemia
RXF 393 renal = test system: RXF 393 renal
NCI-H23 lung = test system: NCI-H23 lung
SW-620 colon = test system: SW-620 colon
IGROV1 ovarian = test system: IGROV1 ovarian
HCT-15 colon = test system: HCT-15 colon
MALME-3M melanoma = test system: MALME-3M melanoma
HT29 colon = test system: HT29 colon
HOP-92 NSCLC = test system: HOP-92 NSCLC
U251 CNS = test system: U251 CNS
BT-549 breast = test system: BT-549 breast
UACC-257 melanoma = test system: UACC-257 melanoma
SK-MEL-2 melanoma = test system: SK-MEL-2 melanoma
SK-OV-3 ovarian = test system: SK-OV-3 ovarian
NCI/ADR-RES ovarian = test system: NCI/ADR-RES ovarian
HCT-116 colon = test system: HCT-116 colon
SF-539 CNS = test system: SF-539 CNS
SF-268 CNS = test system: SF-268 CNS
TK-10 renal = test system: TK-10 renal
M14 melanoma = test system: M14 melanoma
HCC-2998 colon = test system: HCC-2998 colon
SN12C renal = test system: SN12C renal
MDA-MB-435 = test system: MDA-MB-435
ACHN renal = test system: ACHN renal
A498 renal = test system: A498 renal
UACC-62 melanoma = test system: UACC-62 melanoma
CCRF-CEM leukemia = test system: CCRF-CEM leukemia
A549 NSCLC = test system: A549 NSCLC
MCF7 breast = test system: MCF7 breast
CAKI-1 renal = test system: CAKI-1 renal
MDA-MB-231 breast = test system: MDA-MB-231 breast
SR leukemia = test system: SR leukemia
NCI-H522 lung = test system: NCI-H522 lung
HOP-62 NSCLC = test system: HOP-62 NSCLC
SNB-19 CNS = test system: SNB-19 CNS

## C#C[C@]1(O)CC[C@H]2[C@@H]3CC=C4c5sc(Nc6cc(Cl)ccn6)nc5CC[C@]4(C)[C@H]3CC[C@@]21C
SK-MEL-5 melanoma
  GI50: 1.74 µM
  TGI: 3.32 µM
NCI-H460 lung
  GI50: 0.922 µM
  TGI: 2.67 µM
PC-3 prostate
  GI50: 0.386 µM
  TGI: 3.64 µM
DU-145 prostate
  GI50: 2.53 µM
  TGI: > 100 µM
OVCAR-4 ovarian
  GI50: 2.8 µM
  TGI: > 26.2 µM
SNB-75 CNS
  GI50: 0.637 µM
SK-MEL-28 melanoma
  GI50: 0.317 µM
  TGI: 1.1 µM
OVCAR-5 ovarian
  GI50: 2.14 µM
  TGI: > 20.4 µM
786-0 renal
  GI50: 0.227 µM
  TGI: 0.594 µM
T-47D breast
  GI50: 2.44 µM
  TGI: > 26.3 µM
UO-31 renal
  GI50: 0.383 µM
  TGI: 1.61 µM
NCI-H226 lung
  GI50: 2.14 µM
  TGI: 9.84 µM
HS 578T breast
  GI50: 0.278 µM
  TGI: 1.17 µM
EKVX NSCLC
  GI50: 1.08 µM
  TGI: 4.79 µM
KM12 colon
  GI50: 1.63 µM
  TGI: 8.59 µM
MOLT-4 leukemia
  GI50: 0.321 µM
  TGI: 1.95 µM
OVCAR-8 ovarian
  GI50: 1.4 µM
  TGI: 3.19 µM
K-562 leukemia
  GI50: 0.366 µM
  TGI: 2.45 µM
HL-60(TB) leukemia
  GI50: 0.402 µM
  TGI: 2.07 µM
COLO 205 colon
  GI50: 1.66 µM
  TGI: 3.42 µM
RPMI-8226 leukemia
  GI50: 0.212 µM
  TGI: 0.749 µM
RXF 393 renal
  GI50: 0.124 µM
  TGI: 0.38 µM
NCI-H23 lung
  GI50: 1.35 µM
  TGI: 4.71 µM
SW-620 colon
  GI50: 1.09 µM
  TGI: 2.68 µM
IGROV1 ovarian
  GI50: 1.78 µM
  TGI: > 21.2 µM
HCT-15 colon
  GI50: 1.01 µM
  TGI: 4.88 µM
MALME-3M melanoma
  GI50: 0.663 µM
  TGI: 2.1 µM
HT29 colon
  GI50: 1.42 µM
  TGI: 3.15 µM
HOP-92 NSCLC
  GI50: 1.53 µM
  TGI: 3.37 µM
U251 CNS
  GI50: 0.425 µM
  TGI: 1.67 µM
BT-549 breast
  GI50: 0.627 µM
  TGI: 2.36 µM
UACC-257 melanoma
  GI50: 0.727 µM
  TGI: 2.2 µM
SK-MEL-2 melanoma
  GI50: 1.43 µM
  TGI: 3.95 µM
SK-OV-3 ovarian
  GI50: 0.663 µM
  TGI: 2.17 µM
NCI/ADR-RES ovarian
  GI50: 1.95 µM
  TGI: 6.65 µM
HCT-116 colon
  GI50: 0.784 µM
  TGI: 2.35 µM
SF-539 CNS
  GI50: 0.214 µM
  TGI: 0.741 µM
SF-268 CNS
  GI50: 1.45 µM
  TGI: 4.55 µM
TK-10 renal
  GI50: 2.21 µM
  TGI: 11.4 µM
M14 melanoma
  GI50: 0.736 µM
  TGI: 2.27 µM
HCC-2998 colon
  GI50: 2.19 µM
  TGI: 5.52 µM
SN12C renal
  GI50: 3.36 µM
  TGI: > 100 µM
MDA-MB-435
  GI50: 1.06 µM
  TGI: 3.09 µM
ACHN renal
  GI50: 0.834 µM
A498 renal
  GI50: 0.828 µM
  TGI: 2.28 µM
UACC-62 melanoma
  GI50: 0.846 µM
  TGI: 3.9 µM
CCRF-CEM leukemia
  GI50: 0.463 µM
  TGI: > 22.5 µM
A549 NSCLC
  GI50: 1.18 µM
  TGI: 2.61 µM
MCF7 breast
  GI50: 0.516 µM
  TGI: 3.43 µM
CAKI-1 renal
  GI50: 0.725 µM
  TGI: 2.2 µM
MDA-MB-231 breast
  GI50: 1.58 µM
  TGI: 4.61 µM
SR leukemia
  GI50: 0.308 µM
  TGI: 1.38 µM
NCI-H522 lung
  GI50: 1.83 µM
  TGI: 4.08 µM
HOP-62 NSCLC
  GI50: 0.759 µM
  TGI: 2.67 µM
SNB-19 CNS
  GI50: 1.23 µM
